# Tests used:
# [1] = tested on: Panx1 hemichannel permeability, macrophages; assay: Lucifer Yellow dye uptake in presence of calcium (Panx1 hemichannel permeability); assay type: cell-based
# [2] = tested on: Balb/c mice, polymicrobial sepsis (CLP); assay: CLP-induced sepsis survival; assay type: in vivo; settings: P5 8.0 mg/kg
# Source text: (§1) This study was approved and performed in accordance with the guidelines of the Institutional Animal Care and Use Committee of the Feinstein Institute for Medical Research, Manhasset, New York, USA (Animal Protocol #2008-033, Approval date: September 10, 2014). To evaluate the effect of various Cx43 mimetic peptides on sepsis lethality, a clinically relevant animal model of sepsis induced by cecal ligation and puncture (CLP) was employed. Briefly, the cecum of Balb/c mice was ligated at about 5 mm from the cecal tip, and then punctured once with a 22-gauge needle. GAP26, TAT-GAP19 or P5 peptides were administered intraperitoneally into mice at indicated doses and time points, and animal survival rates were monitored for up to 2 wks. The Kaplan-Meier method was used to compare the differences in mortality rates between groups.
# [3] = tested on: Cx43 protein expression, NIH 3T3 fibroblasts; assay: Cx43 protein expression, Western blotting, NIH 3T3 cells; assay type: cell-based; settings: prolonged incubation, data not shown
# Method: The cellular levels of Cx43 and phosphor-PKR were determined by Western blotting analysis using an affinity-purified rabbit anti-Cx43 or anti-phospho-PKR (Thr^451) IgGs as previously described[9],[25],[53]. The levels of HMGB1 in the culture medium were determined by Western blotting analysis as described previously. The level of β-actin was used as a reference of total cellular proteins. Briefly, an equal volume of culture medium (conditioned by identical macrophage cell numbers) was harvested, and protein content was concentrated by ultrafiltration (with a molecular weight cutoff of 10.0 kDa), and then normalized to the same volume with a sample buffer. Proteins in equal sample volume were resolved on sodium dodecyl sulfate (SDS)-polyacrylamide gels, and transferred to polyvinylidene difluoride (PVDF) membranes. After blocking with 5% nonfat milk, the membrane was incubated with respective antibodies (anti-Cx43, 1:1000; anti-phospho-PKR, 1:1000; anti-HMGB1, 1:1,000; anti-β-actin. 1:5,000) overnight. Subsequently, the membrane was incubated with the appropriate secondary antibody, and the immunoreactive bands were visualized by chemiluminescence techniques.
# [4] = tested on: LPS-induced ATP release, RAW 264.7 cells; assay: ATP release assay; assay type: cell-based, murine; settings: P5 20 µM; LPS 1 µg/ml; RAW 264.7, serum-free DMEM; luciferin:luciferase; P < 0.05 versus +LPS
# Method: In addition to the LY dye uptake, we also employed the ATP release assay to measure the Cx43 hemichannel activities. The current gold standard for ATP quantification relied on luciferin:luciferase chemistry where the enzyme luciferase catalyzed the oxidation of ATP and luciferin ultimately resulting in the generation of a photon which could be quantified by luminometry using a luminometer plate reader (Synergy H1 Hybrid, Biotek, Winooski, U.S.A.) and the amount of ATP was calculated from standard curve. Briefly, RAW 264.7 cells were cultured in serum-free DMEM medium, and stimulated with LPS (1 µg/ml) in the absence or presence of Cx43 mimetic peptide (P5, 20 µM). The cell-conditioned culture medium was collected and subjected to ATP measurement. We used the Molecular Probes® ATP Determination Kit (Cat. # A22066, Life Technologies), which was based on luciferase’s absolute requirement for ATP in producing light (emission maximum ~560 nm at pH 7.8), to measure the extracellular ATP levels in LPS-stimulated RAW 264.7 cells.
# [5] = tested on: LPS-induced trypan blue uptake, RAW 264.7 cells; assay: Trypan blue uptake assay; assay type: cell-based, murine; settings: P5 10 µg/ml, LPS 1.0 µg/ml, 16 h, 0.08% trypan blue, P < 0.05 versus +LPS
# Method: Specifically, murine macrophage-like RAW 264.7 cells were stimulated with LPS (1.0 µg/ml) in the absence or presence of P5 peptide (10 µg/ml) for 16 h, and the culture medium was then replaced with 1 × PBS containing 0.08% trypan blue (Cat. # 15250-061, Invitrogen). Phase contrast images of multiple fields were randomly captured, and the percentage of trypan blue-stained cells was calculated.
# [6] = tested on: cytokines and chemokines, RAW 264.7 cells; assay: Cytokine antibody array; assay type: cell-based, murine; settings: P5 10 μM, LPS 16 h, 62-cytokine antibody array
# Method: Murine Cytokine Antibody Arrays (Cat. No. M0308003, RayBiotech Inc., Norcross, GA, USA), which respectively detect 62 cytokines on one membrane, were used to determine cytokine levels in macrophage-conditioned culture medium as previously described[51],[54]. Briefly, the membranes were sequentially incubated with equal volumes cell-conditioned culture medium (200 μl), primary biotin-conjugated antibodies, and horseradish peroxidase–conjugated streptavidin.
# [7] = tested on: LPS-induced production of nitric oxide; assay: Nitric oxide production; assay type: cell-based; settings: data not shown
# [8] = tested on: hepatic I/R injury, C57BL/6 mice; assay: Hepatic ischemia/reperfusion injury; assay type: in vivo, Male C57BL/6 mice; settings: P5 10.0 mg/kg i.v. at onset of reperfusion; 60 min ischemia; 24 h after onset of ischemia; P < 0.05 versus saline (I/R)
# Method: Male C57BL/6 mice (20–25 g) were subjected to hepatic ischemia/reperfusion by temporally clamping the hepatic artery and portal vein for 60 min, which typically produced ischemia in 70% of the liver. At the beginning of the reperfusion, 0.2 ml saline, P5 (10.0 mg/kg BW) was injected via the internal jugular vein. At 24 h after the onset of ischemia, animals were euthanized to harvest blood to measure serum levels of hepatic injury markers such as alanine aminotransferase (ALT) and aspartate aminotransferase (AST) using commercial kits.
# [9] = tested on: TUNEL-positive cells, lungs of septic mice (CLP); assay: TUNEL staining of septic lungs; assay type: in vivo, Balb/c mice; settings: lungs at 24 h post CLP, at protective doses; 5–8 fields; P < 0.05 versus CLP
# Source text: as §1
# Upper and lower lobe lung tissues were collected at 24 h post CLP, fixed in 4% paraformaldehyde, embedded in paraffin, and cut into 5 µm thick sections. […] Five to eight fields of view were randomly selected for each tissue section, and the number of TUNEL-positive green cells was expressed as an average of percentage of total DAPI-positive blue cells.
# Cx43 EL2 peptide = assay: Surface Plasmon Resonance, Cx43 EL2 peptide; assay type: binding; settings: synthetic full-length EL2 peptide, data not shown
substance,measurement,setting,value
"ENVCYD [P5, cysteine-containing Cx43 EL1 mimetic hexamer peptide, P5 (ENVCYD)]",LY uptake in calcium-containing medium,[1],did not alter macrophage LY uptake in calcium-containing medium
same,animal survival rates (in words),"[2]; +2 h and +24 h after onset of sepsis, P < 0.05 versus CLP + Saline",significant increase in animal survival rates
same,animal survival,"[2]; i.p., +2, +24 h post CLP, up to two weeks, saline 30%, P < 0.05, Kaplan-Meier",85%
same,Cx43 protein expression,[3],did not alter Cx43 protein expression
same,LPS-induced ATP release,[4],significantly attenuated the LPS-induced ATP release
same,LPS-induced trypan blue uptake,[5],significantly suppressed the LPS-induced elevation of trypan blue uptake
same,other cytokines and chemokines,[6],did not affect
same,LPS-induced production of nitric oxide,[7],did not affect the LPS-induced production of nitric oxide
same,serum alanine aminotransferase (ALT),[8],significant reduction of serum levels
same,serum aspartate aminotransferase (AST),[8],significant reduction of serum levels
same,systemic release of LDH,[8],significantly attenuated
same,TUNEL-positive cells in septic lungs,[9],significantly reduced the number of TUNEL-positive cells in septic lungs
same,binding to Cx43 EL2 peptide,Cx43 EL2 peptide,did not find evidence of P5 interacting
